Counter-ions that a name gives are not always drawn. Each block holds one molecule with its values, some of them ahead of it.
Key:
i-NOS = i-NOS (Homo sapiens, UniProt P35228); experiment: i-NOS inhibition, comparison with NIL amides; type: biochemical; conditions: compared with NIL amide or NIL dimethylamide
intestinal tumorigenesis = conditions: APC^Δ716 mice; cited from earlier work
AOM-induced colonic ACF = experiment: Chemopreventive effects in rats with azoxymethane-induced aberrant crypt foci; type: in vivo, male F344 rats
Excerpt: In Vivo Assay of Chemopreventive Effects of Therapeutic Compounds in Rats with Azoxymethane-induced Aberrant Crypt Foci
Azoxymethane (AOM) (CAS:25843-45-2) was purchased from Ash Stevens (Detroit, Mich.). iNOS and COX-2 selective inhibitors were provided by Pharmacia, (St. Louis, […].). Sulindac, a non-selective inhibitor of COX-isoforms and a known inhibitor of colon carcinogenesis, was supplied by the Chemoprevention Branch of the National Cancer Institute (Bethesda, Md.). Weanling male F344 rats were purchased from Charles River Breeding Laboratories (Kingston, N.Y.). All ingredients of the semipurified diet were obtained from Dyets Inc., (Bethlehem, Pa.) and were stored at 4° C. until the experimental diets were prepared. The rats were held in quarantine for 1 week and had access to modified AIN-76A semipurified control diet (Reddy et al., Cancer Res. 50: 2562-2568, 1990, which is herein incorporated by reference.). They were randomly distributed into various dietary groups and were transferred to an animal holding room where they were housed, three rats to a plastic cage, under controlled conditions of a 12-h light/12-h dark cycle, 50% relative humidity and 21° C. room temperature. Experimental diets were prepared by mixing chemopreventive agents with modified AIN-76A control diet.
To quantify aberrant crypt foci, after a minimum of 24 h in buffered formalin, the colons were cut into 2-cm segments starting at the anus; for the next 5-10 min they were placed in a Petri dish containing 0.2% methylene blue in Krebs Ringer solution. They were then placed, mucosal side up, on a microscope slide and observed through a light microscope. Aberrant crypt foci were recorded according to standard procedures that are being used routinely in our laboratory (Rao et al., Carcinogenesis 21: 617-21, 2000; Rao et al., Cancer Res. 53:4182-88, 1993, which are herein incorporated by reference.). […] The parameters used to assess the aberrant crypts were their occurrence and multiplicity. Crypt multiplicity was determined as the number of crypts in each focus and categorized as containing up to 3, or 4 or more aberrant crypts/focus.

NOS = experiment: Colonic mucosal NOS activity after dietary treatment; type: in vivo, male F344 rats; conditions: 1800 ppm in diet; AOM-treated rats, colonic mucosa; Mean ± SEM
Description: (§1) In Vivo Assay of Modulation of Colonic Mucosal Activities of NOS and COX isoforms by iNOS and COX-2 Inhibitors
(§2) NOS and iNOS activities were determined in colonic samples as prepared and described above. Conversion of L-arginine to L-citrulline was measured by a modification of an earlier described method (Rao et al, Carcinogenesis 21, supra; Ambs et al., Cancer Res. 58:334-41, 1998, which is herein incorporated by reference). The assay was carried out by adding 100 μg sample protein to 150 μl of assay buffer [50 mM HEPES, 1 mM DTT, 1 mM MgCl2, 5 mg/L pepstatin A, 0.1 mM PMSF, and 3 mg/L aprotinin, pH 7.4] containing 70 μM arginine, 250,000 dpm L-[^3H]-arginine, 2 mM NADPH, 5μM tetrahydro biopterin, 5 μM flavin adenine dinucleotide, and 0.5 mM CaCi2 to measure total NOS activity, or 1 mM EGTA (without calcium) to determine Ca+^2-independent iNOS activity. After 30 min at 37° C., the reaction was stopped with 100 μl of 1M trichloroacetic acid. Then the samples were adjusted to pH 4.6 by adding 500 μl of 20 mM HEPES and loaded on to Dowex AG 50W-X8 resin columns. L-[^3H]-citrulline was eluted and separated on TLC. Radioactivity was counted by a BioScan Radiomatic detector. Results are expressed as pmol L-[^3H]-citrulline released/mg protein/min.

iNOS = iNOS (Rattus norvegicus, UniProt Q06518); experiment: Colonic mucosal iNOS activity after dietary treatment; type: in vivo, male F344 rats
Description: as §1, §2

COX-1 = molecular target: T1, COX-1 (Rattus norvegicus, UniProt Q63921); experiment: Colonic mucosal COX-1 activity after dietary treatment; type: in vivo, male F344 rats; conditions: 1800 ppm in diet; AOM-treated rats, colonic mucosa; Mean ± SEM
T1 sequence (Q63921 27-602): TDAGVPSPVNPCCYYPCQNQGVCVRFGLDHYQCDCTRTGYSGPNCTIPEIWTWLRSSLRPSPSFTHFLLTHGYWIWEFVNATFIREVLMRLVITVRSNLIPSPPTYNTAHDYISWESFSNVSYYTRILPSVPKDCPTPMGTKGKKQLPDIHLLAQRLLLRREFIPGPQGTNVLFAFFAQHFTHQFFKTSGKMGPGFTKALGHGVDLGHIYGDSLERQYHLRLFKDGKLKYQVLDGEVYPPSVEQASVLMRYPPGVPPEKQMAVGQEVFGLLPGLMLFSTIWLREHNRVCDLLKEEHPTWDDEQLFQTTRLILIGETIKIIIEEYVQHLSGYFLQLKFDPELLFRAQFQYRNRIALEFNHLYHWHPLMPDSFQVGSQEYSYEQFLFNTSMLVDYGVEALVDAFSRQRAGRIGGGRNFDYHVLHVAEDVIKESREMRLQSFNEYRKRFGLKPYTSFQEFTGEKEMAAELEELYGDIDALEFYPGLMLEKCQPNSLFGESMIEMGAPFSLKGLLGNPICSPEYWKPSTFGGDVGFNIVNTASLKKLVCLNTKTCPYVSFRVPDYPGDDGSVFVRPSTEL
Description: (§3) For determining COX-2 activity, proteins were preincubated with 50 μM of aspirin to block the activity of COX-1. After incubation at 37° C. for 15 min, the reaction was terminated by adding 40 μl of 0.2 M HCl. The COX-mediated metabolites of arachidonic acid were extracted with ethyl acetate (3×0.5 ml). The combined extracts were evaporated to dryness under N2, redissolved in chloroform, and subjected to thin layer chromatography on precoated TLC plastic plates (silica G 60, 20×20 cm, layer thickness 150 μm). […] The metabolites of ^14C-AA corresponding to PGE2, PGF2α, PGD2, 6-Keto PGF1α, and TXB2 were detected by their comigration (Rf-values) with authentic standards. The area of each metabolite was determined in a Bioscan System 200 image scanning counter (Bioscan Inc., Washington, D.C.) equipped with β-detector.

COX-2 = molecular target: T2, COX-2 (Rattus norvegicus, UniProt P35355); experiment: Colonic mucosal COX-2 activity after dietary treatment; type: in vivo, male F344 rats; conditions: 1800 ppm in diet; AOM-treated rats, colonic mucosa; Mean ± SEM
T2 sequence (P35355 18-604): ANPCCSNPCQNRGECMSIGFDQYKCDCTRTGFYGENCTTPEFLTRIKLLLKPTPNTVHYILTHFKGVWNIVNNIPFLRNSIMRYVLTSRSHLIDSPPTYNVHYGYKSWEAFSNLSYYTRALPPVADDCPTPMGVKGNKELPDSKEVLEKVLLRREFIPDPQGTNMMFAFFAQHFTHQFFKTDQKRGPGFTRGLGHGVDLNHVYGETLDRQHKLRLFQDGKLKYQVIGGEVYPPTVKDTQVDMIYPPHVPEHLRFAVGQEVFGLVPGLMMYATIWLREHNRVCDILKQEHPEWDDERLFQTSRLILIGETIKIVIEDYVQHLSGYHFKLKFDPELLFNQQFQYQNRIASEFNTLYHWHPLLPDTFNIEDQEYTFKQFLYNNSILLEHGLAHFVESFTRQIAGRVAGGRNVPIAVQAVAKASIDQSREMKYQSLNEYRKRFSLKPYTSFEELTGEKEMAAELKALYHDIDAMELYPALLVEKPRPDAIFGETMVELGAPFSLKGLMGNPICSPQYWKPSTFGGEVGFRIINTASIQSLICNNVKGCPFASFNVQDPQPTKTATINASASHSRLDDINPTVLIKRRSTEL
Description: as §3

[1] = 1800 ppm in diet, AOM-treated male F344 rats, Mean ± SEM

i-NOS, sequence (P35228 whole entry): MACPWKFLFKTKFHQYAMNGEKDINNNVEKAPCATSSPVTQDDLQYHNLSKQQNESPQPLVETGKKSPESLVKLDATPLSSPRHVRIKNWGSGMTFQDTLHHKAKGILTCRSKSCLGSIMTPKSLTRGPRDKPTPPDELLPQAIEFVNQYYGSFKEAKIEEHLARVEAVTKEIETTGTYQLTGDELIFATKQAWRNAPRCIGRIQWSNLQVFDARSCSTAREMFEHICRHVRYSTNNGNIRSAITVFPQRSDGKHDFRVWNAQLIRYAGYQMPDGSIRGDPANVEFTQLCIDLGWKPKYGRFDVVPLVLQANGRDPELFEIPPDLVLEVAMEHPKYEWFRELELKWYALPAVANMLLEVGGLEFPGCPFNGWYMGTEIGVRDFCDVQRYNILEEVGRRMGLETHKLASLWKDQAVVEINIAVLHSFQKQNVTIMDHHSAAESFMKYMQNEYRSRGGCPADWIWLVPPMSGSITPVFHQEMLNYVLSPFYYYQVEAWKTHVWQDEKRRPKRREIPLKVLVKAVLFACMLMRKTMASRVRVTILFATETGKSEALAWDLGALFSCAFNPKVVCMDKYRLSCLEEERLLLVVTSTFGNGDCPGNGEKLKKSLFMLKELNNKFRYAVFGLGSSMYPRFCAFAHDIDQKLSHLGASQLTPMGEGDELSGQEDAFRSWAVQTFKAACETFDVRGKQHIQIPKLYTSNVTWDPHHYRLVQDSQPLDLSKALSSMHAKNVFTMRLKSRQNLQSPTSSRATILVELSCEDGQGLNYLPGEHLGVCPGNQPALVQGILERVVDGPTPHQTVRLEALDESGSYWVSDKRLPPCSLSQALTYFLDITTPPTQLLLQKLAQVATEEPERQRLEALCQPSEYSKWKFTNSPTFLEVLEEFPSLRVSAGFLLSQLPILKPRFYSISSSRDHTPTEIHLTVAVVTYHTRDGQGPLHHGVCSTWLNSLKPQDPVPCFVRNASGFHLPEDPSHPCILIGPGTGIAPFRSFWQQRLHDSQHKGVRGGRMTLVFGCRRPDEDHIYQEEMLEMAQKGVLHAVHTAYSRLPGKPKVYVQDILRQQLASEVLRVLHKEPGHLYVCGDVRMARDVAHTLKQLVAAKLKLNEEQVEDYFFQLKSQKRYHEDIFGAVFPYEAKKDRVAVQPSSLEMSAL

- melting point: 198 to 200 °C
SMILES: CC(=NO)NC/C(F)=C\CC[C@H](N)C(=O)O [Example G, (2S,5E)-2-amino-6-fluoro-7-[(1-hydroximinoethyl)amino]-5-heptenoic acid]

SMILES: CC(=N)NCCCC[C@H](N)C(=O)Nc1nnn[nH]1 [Example NN, 2S-amino-6-[(1-iminoethyl)amino]-N-(1H-tetrazol-5-yl)hexanamide, hydrate, dihydrochloride]
- i-NOS inhibitor potency (i-NOS): more potent

SMILES: CS(=O)(=O)c1ccc(C2=C(c3ccc(F)c(F)c3)C(=O)OC2)cc1 [MF-Tricyclic]
- intestinal tumorigenesis (intestinal tumorigenesis): blocks

SMILES: N=C(N)NN [aminoguanidine]
- Foci containing 1 Crypt (AOM-induced colonic ACF; [1]): 28.0 ± 2.4
- Foci containing 2 Crypt (AOM-induced colonic ACF; [1]): 29.3 ± 1.3
- Foci containing 3 Crypt (AOM-induced colonic ACF; [1]): 17.8 ± 1.0
- Foci containing ≧4 Crypts (AOM-induced colonic ACF; [1]): 14.6 ± 1.8
- Total ACF incidence (AOM-induced colonic ACF; [1]): 89.8 ± 4.5
- effect on AOM-induced total colonic ACF and multicrypt clusters of 4 or more crypts (AOM-induced colonic ACF; 1,800 ppm, compared to control diet): suppressed
- NOS Activity, NOS (NOS): 7.9 ± 1.7 pmoles [^3H]-citrulline/mg pro
- suppression of AOM-induced colonic mucosal iNOS activity (iNOS; 1800 ppm): 50%
- NOS Activity, iNOS (iNOS; 1800 ppm in diet, AOM-treated rats, colonic mucosa, Mean ± SEM): 1.1 ± 0.1 pmoles [^3H]-citrulline/mg pro
- COX-Activity, COX-1 (COX-1): 10.8 ± 1.9 pmoles [^14C]-AA metabolized/m
- COX-Activity, COX-2 (COX-2): 1.2 ± 0.2 pmoles [^14C]-AA metabolized/m

From US7012098B2, “Inhibitors of inducible nitric oxide synthase for chemoprevention and treatment of cancers” (Pharmacia Corporation, priority 2001, dated 2006)
